≈ marks a conversion by molar mass, not a printed value.
Tests used:
[1] = Inhibition of bacterial beta lactamase KPC-2 after 5 mins; parameters: species or system Bacteria
[2] = Inhibition of bacterial beta lactamase OXA-24 after 5 mins; parameters: species or system Bacteria
[3] = Inhibition of Pseudomonas aeruginosa beta lactamase AmpC after 5 mins
[4] = Inhibition of bacterial beta lactamase OXA-48 after 5 mins; parameters: species or system Bacteria
[5] = Inhibition of bacterial beta lactamase OXA-10 after 5 mins; parameters: species or system Bacteria
[6] = Inhibition of Enterobacter cloacae beta lactamase P99 after 5 mins
Beta-lactamase TEM = Beta-lactamase TEM (Bacteria, UniProt P62593); experiment: Inhibition of bacterial beta lactamase TEM-1 after 5 mins
[7] = Inhibition of bacterial beta lactamase CTX-M-15 after 5 mins; parameters: species or system Bacteria
[8] = Inhibition of bacterial beta lactamase AmpC; parameters: species or system Bacteria
Leishmania major = experiment: Antileishmanial activity Leishmania major MHOM/SA/85/JISH118 after 72 hrs by giemsa staining based light microscopic analysis; format: functional, organism-based; conditions: MHOM/SA/85/JISH118, 72 h
Leishmania tropica [9] = experiment: Antileishmanial activity Leishmania tropica AO21/p after 72 hrs by giemsa staining based light microscopic analysis; format: functional, organism-based
Leishmania panamensis = experiment: Antileishmanial activity Leishmania panamensis MHOM/PA/67/BOYNTON after 72 hrs by giemsa staining based light microscopic analysis; format: functional, organism-based
Leishmania tropica [10] = experiment: Antileishmanial activity Leishmania tropica MHOM/IR/2013/HTD4 after 72 hrs by giemsa staining based light microscopic analysis; format: functional, organism-based; conditions: MHOM/IR/2013/HTD4, 72 h
Leishmania aethiopica = experiment: Antileishmanial activity Leishmania aethiopica MHOM/ET/84/KH after 72 hrs by giemsa staining based light microscopic analysis; format: functional, organism-based
Leishmania mexicana = experiment: Antileishmanial activity Leishmania mexicana MNYC/BZ/62/M379 after 72 hrs by giemsa staining based light microscopic analysis; format: functional, organism-based; conditions: MNYC/BZ/62/M379, 72 h
[11] = target: Proteasome Macropain subunit MB1 (Homo sapiens, UniProt P28074); experiment: Inhibition of human chymotrypsin-like activity of 20S proteasome (unknown origin)
MDA-MB-231 [12] = experiment: Antiproliferative activity against human MDA-MB-231 cells after 72 hrs; format: functional, cell-based; conditions: MDA-MB-231, 72 h
THP-1 = experiment: Cytotoxicity against human THP1 cells after 72 hrs by SRB assay; format: functional, cell-based; conditions: THP-1, 72 h
[13] = tested on: Mycobacterium tuberculosis; experiment: Antimycobacterial activity against Mycobacterium tuberculosis H37Rv after 14 days by broth micro-dilution method; format: functional; conditions: 336 h
[14] = Inhibition of bacterial beta lactamase KPC-2; parameters: species or system Bacteria
[15] = Inhibition of bacterial beta lactamase CTX-M-15; parameters: species or system Bacteria
A2780 = experiment: Antiproliferative activity against human A2780 cells by MTT assay; format: functional, cell-based
[16] = Inhibition of bacterial beta lactamase VIM-2; parameters: species or system Bacteria
[17] = Inhibition of bacterial beta lactamase NDM-1; parameters: species or system Bacteria
[18] = Inhibition of bacterial beta lactamase OXA-24; parameters: species or system Bacteria
SK-OV-3 = experiment: Antiproliferative activity against human SKOV3 cells by MTT assay; format: functional, cell-based
MDA-MB-231 [19] = experiment: Antiproliferative activity against human MDA-MB-231 cells by MTT assay; format: functional, cell-based
HCT-116 = experiment: Antiproliferative activity against human HCT116 cells by MTT assay; format: functional, cell-based
[20] = tested on: Mycobacterium tuberculosis; experiment: […] activity against Mycobacterium tuberculosis; format: functional
[21] = tested on: Trypanosoma brucei brucei; experiment: Anti-parasitic activity against trypomastigote form of Trypanosoma brucei brucei 427 after 24 hrs by resazurin dye-based assay; format: functional, organism-based; conditions: Trypanosoma brucei, 427, 24 h
Trichomonas vaginalis = experiment: Antiprotozoal activity against Trichomonas vaginalis G3; format: functional, organism-based
Enterococcus faecium = experiment: Antibacterial activity against Enterococcus faecium ATCC 568; format: functional
Streptococcus pneumoniae = experiment: Antibacterial activity against Streptococcus pneumoniae ATCC 49619; format: functional
Plasmodium falciparum [22] = experiment: Antimalarial activity against Plasmodium falciparum HB3 after 48 hrs by [3H]-hypoxanthine incorporation assay; format: functional, organism-based
Plasmodium berghei = experiment: Antimalarial activity against Plasmodium berghei […]; format: functional
Plasmodium falciparum [23] = experiment: Antimalarial activity against Plasmodium falciparum W2 after 48 hrs by [3H]-hypoxanthine incorporation assay; format: functional, organism-based
Plasmodium falciparum [24] = experiment: Antimalarial activity against Plasmodium falciparum AN3661 derived from malaria patient; format: functional
Plasmodium falciparum [25] = experiment: Antimalarial activity against Plasmodium falciparum Dd2 after 48 hrs by [3H]-hypoxanthine incorporation assay; format: functional, organism-based
Plasmodium falciparum [26] = experiment: Antimalarial activity against Plasmodium falciparum TM90C2B after 48 hrs by [3H]-hypoxanthine incorporation assay; format: functional, organism-based
Plasmodium falciparum [27] = experiment: Antimalarial activity against Plasmodium falciparum FCR-3 after 48 hrs by [3H]-hypoxanthine incorporation assay; format: functional, organism-based; conditions: FCR-3/Gambia
Plasmodium falciparum [28] = experiment: Antimalarial activity against Plasmodium falciparum 3D7 after 48 hrs by [3H]-hypoxanthine incorporation assay; format: functional, organism-based
Plasmodium falciparum [29] = experiment: Antimalarial activity against Plasmodium falciparum K1 after 48 hrs by [3H]-hypoxanthine incorporation assay; format: functional, organism-based
Plasmodium falciparum [30] = experiment: Antimalarial activity against Plasmodium falciparum Ugandan field isolates after 48 hrs by [3H]-hypoxanthine incorporation assay; format: functional, organism-based
[31] = target: 3',5'-cyclic-AMP phosphodiesterase 4B (Homo sapiens, UniProt Q07343); experiment: Inhibition of […] human recombinant PDE4B catalytic domain (152 to 484 residues)
GH3 = experiment: Cytotoxicity against rat GH3 cells; format: functional, cell-based
[32] = Inhibition of bacterial beta lactamase CTX-M-9; parameters: species or system Bacteria
Hep 3B2 = experiment: Antiproliferative activity against human Hep3B cells by MTT assay; format: functional, cell-based
HepG2 = experiment: Antiproliferative activity against human HepG2 cells by MTT assay; format: functional, cell-based

Sequence of Proteasome Macropain subunit MB1 (P28074 whole entry): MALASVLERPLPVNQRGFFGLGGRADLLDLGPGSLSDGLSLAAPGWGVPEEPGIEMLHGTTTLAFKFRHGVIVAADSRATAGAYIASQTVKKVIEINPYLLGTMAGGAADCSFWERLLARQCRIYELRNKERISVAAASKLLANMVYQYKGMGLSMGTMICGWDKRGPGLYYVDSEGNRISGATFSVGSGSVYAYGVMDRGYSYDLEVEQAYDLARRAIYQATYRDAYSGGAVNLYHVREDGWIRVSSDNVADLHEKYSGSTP
Sequence of Beta-lactamase TEM (P62593 whole entry): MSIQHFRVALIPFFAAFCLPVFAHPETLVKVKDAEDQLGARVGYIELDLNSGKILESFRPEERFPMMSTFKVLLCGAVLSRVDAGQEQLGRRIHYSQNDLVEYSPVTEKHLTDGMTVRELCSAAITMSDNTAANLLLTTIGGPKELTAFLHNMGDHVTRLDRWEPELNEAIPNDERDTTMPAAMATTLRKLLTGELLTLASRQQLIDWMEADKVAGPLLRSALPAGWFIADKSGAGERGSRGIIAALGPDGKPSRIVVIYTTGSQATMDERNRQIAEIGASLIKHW
Sequence of 3',5'-cyclic-AMP phosphodiesterase 4B (Q07343 whole entry, the tested form may be a part): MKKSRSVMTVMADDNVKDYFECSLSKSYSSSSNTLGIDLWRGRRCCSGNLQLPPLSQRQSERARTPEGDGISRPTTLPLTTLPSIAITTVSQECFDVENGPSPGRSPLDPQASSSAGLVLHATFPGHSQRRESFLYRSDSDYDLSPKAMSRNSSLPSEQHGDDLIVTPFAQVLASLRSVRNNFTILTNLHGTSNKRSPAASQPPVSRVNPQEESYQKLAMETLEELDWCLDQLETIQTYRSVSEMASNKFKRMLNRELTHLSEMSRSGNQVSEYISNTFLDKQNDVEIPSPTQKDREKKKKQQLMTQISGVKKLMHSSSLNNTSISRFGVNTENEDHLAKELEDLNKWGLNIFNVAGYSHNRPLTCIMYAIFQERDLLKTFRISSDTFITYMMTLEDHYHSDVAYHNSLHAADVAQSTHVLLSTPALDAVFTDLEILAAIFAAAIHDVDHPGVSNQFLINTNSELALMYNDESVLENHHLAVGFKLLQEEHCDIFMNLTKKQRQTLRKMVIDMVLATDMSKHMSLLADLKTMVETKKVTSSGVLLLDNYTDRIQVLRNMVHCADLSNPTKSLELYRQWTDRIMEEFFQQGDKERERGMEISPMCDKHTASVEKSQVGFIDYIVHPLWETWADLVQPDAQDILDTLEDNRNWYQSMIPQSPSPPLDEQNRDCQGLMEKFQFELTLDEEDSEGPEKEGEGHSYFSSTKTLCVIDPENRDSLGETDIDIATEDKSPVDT

SMILES: Cc1c(Oc2nc(N)ns2)cc2c(c1C)[C@@H](CC(=O)O)OB2O
- IC50 [1]: 5 to 3900 nM
- IC50 [2]: 5 to 3900 nM
- IC50 [3]: 5 to 3900 nM
- IC50 [4]: 5 to 3900 nM
- IC50 [5]: 5 to 3900 nM
- IC50 [6]: 5 to 3900 nM
- IC50 (Beta-lactamase TEM): 5 to 3900 nM
- IC50 [7]: 5 to 3900 nM

SMILES: NCc1ccc2sc(B(O)O)cc2c1
- IC50 [8]: 400 nM

SMILES: CN(C)CCOc1cc(NC(=O)c2ccc3c(c2)COB3O)ccc1Cl
- EC50 (Leishmania major): 2000 to 23000 nM
- EC50 (Leishmania tropica [9]): 2000 to 23000 nM
- EC50 (Leishmania panamensis): 2000 to 23000 nM
- EC50 (Leishmania tropica [10]): 2000 to 23000 nM
- EC50 (Leishmania aethiopica): 2000 to 23000 nM
- EC50 (Leishmania mexicana): 2000 to 23000 nM

SMILES: CSC[C@H](NC(=O)c1cc(Cl)ccc1Cl)C(=O)N[C@@H](CC(C)C)B1OCCNCCO1
- IC50 [11]: 4.6 nM
- IC50 (MDA-MB-231 [12]): 8.4 nM

SMILES: Cc1ccc2c(c1-c1ccccc1C(N)=O)B(O)OC2
- IC50 (THP-1): 1800 nM
- MIC99 [13]: 5 µM (≈ 1.34 µg/mL)

SMILES: Nc1ccc2c(c1Br)B(O)OC2
- MIC99 [13]: 1.9 µM (≈ 0.433 µg/mL)

SMILES: CC(C)(C)OC(=O)Nc1cccc2cc(B(O)O)sc12
- IC50 [14]: 2300 to 4500 nM
- IC50 [15]: 2300 to 4500 nM

SMILES: OB1OC(N2CCOCC2)c2cc(F)ccc21 (stereo unspecified)
- IC50 (A2780): 14800 nM

SMILES: O=C(O)c1cccc2cc(B(O)O)sc12
- IC50 [16]: 20200 to 27700 nM
- IC50 [17]: 20200 to 27700 nM
- IC50 [18]: 23000 nM

SMILES: O=C(/C=C/c1ccc2c(c1)B(O)OC2)c1ccc(F)cc1
- IC50 (SK-OV-3): 1400 to 2800 nM
- IC50 (MDA-MB-231 [19]): 1400 to 2800 nM
- IC50 (HCT-116): 1400 to 2800 nM

SMILES: O=C(/C=C/c1ccc2c(c1)OCO2)Nc1ccc2c(c1)B(O)OC2
- MIC99 [20]: 40.7 µM (≈ 13.2 µg/mL)
- IC50 [21]: 86 nM
- IC50 (Trichomonas vaginalis): 22800 nM

SMILES: CC[C@H]1OC(=O)[C@H](C)[C@@H](O[C@H]2C[C@@](C)(OC)[C@@H](OC(=O)NCCCNC(=O)CCc3cccc4c3B(O)OC4)[C@H](C)O2)[C@H](C)[C@@H](O[C@@H]2O[C@H](C)C[C@H](N(C)C)[C@H]2O)[C@](C)(O)C[C@@H](C)CN(C)[C@H](C)[C@H]2OC(=O)O[C@@]21C
- MIC (Enterococcus faecium): 0.13 µg/mL (≈ 0.122 µM)
- MIC (Streptococcus pneumoniae): 0.13 µg/mL (≈ 0.122 µM)

SMILES: CC(C)(C)OC(=O)c1cccc2cc(B(O)O)sc12
- IC50 [16]: 20200 to 27700 nM
- IC50 [14]: 2300 to 4500 nM
- IC50 [17]: 20200 to 27700 nM
- IC50 [15]: 2300 to 4500 nM

SMILES: O=C(O)CCc1cccc2c1B(O)OC2
- IC50 (Plasmodium falciparum [22]): 32 nM
- ED90 (Plasmodium berghei): 0.57 mg/kg
- IC50 (Plasmodium falciparum [23]): 32 nM
- ED90 (Plasmodium falciparum [24]): 0.34 mg/kg
- IC50 (Plasmodium falciparum [25]): 32 nM
- IC50 (Plasmodium falciparum [26]): 32 nM
- IC50 (Plasmodium falciparum [27]): 32 nM
- IC50 (Plasmodium falciparum [28]): 32 nM
- IC50 (Plasmodium falciparum [29]): 32 nM
- IC50 (Plasmodium falciparum [30]): 64 nM

SMILES: O=C(Nc1ccc2c(c1)B(O)OC2)c1cn(-c2ccccn2)nn1
- EC50 (Leishmania major): 2000 to 23000 nM
- EC50 (Leishmania tropica [9]): 2000 to 23000 nM
- EC50 (Leishmania panamensis): 2000 to 23000 nM
- EC50 (Leishmania tropica [10]): 2000 to 23000 nM
- EC50 (Leishmania aethiopica): 2000 to 23000 nM
- EC50 (Leishmania mexicana): 2000 to 23000 nM

SMILES: CC(C)OCCOc1nc(Oc2ccc3c(c2)COB3O)ccc1C#N
- IC50 [31]: 2.1 to 8.4 nM

SMILES: CCOC(=O)/C(C#N)=C/c1ccc(B(O)O)cc1
- IC50 (GH3): 140 nM

SMILES: O=C(O)/C=C/c1c(B(O)O)sc2ccccc12
- Ki [8]: 40 to 90 nM
- Ki [32]: 40 to 90 nM

SMILES: CCc1cccc(Nc2ccn(CCC(=O)N[C@@H](CC(C)C)B(O)O)c(=O)c2)c1
- Ki [11]: 17 nM

SMILES: Cc1cnn(B(n2cc(C)cn2)n2cc(C)cn2)c1
- IC50 (Hep 3B2): 15200 nM
- IC50 (HepG2): 1250 nM

— ChEMBL document CHEMBL4364300, “Boron in drug design: Recent advances in the development of new therapeutic agents” (Eur J Med Chem, 2019)
